Experiment: Headspace measurement of DMDS and MeSH from dentifrice samples by SPME GC-SCD
Assay type: physicochemical
Settings: 0.100 wt % in stannous dentifrice, each pair of samples with/without
Method: The oral care compositions of TABLE 2 were prepared by combining one or more humectants, water, sweetener(s), and metal salts, buffers, dyes, and/or stabilizing agents to create a liquid mixture. The liquid mixture was homogenized at 25° C. until homogeneous and completely dissolved. Next, sodium hydroxide (50% solution) was added to the liquid mixture, and the liquid mixture was homogenized at 25° C. until homogeneous and completely dissolved. A separate powder mixture was prepared by combining the abrasive silica, thickening silica, and opacifier, with any thickening agents, such as xanthan gum, Gantrez, and/or sodium carboxymethylcellulose. The powder mixture was then combined with the liquid mixture and homogenized completely. Next, the surfactant, such as sodium lauryl sulfate, flavor, optional Michael acceptor (“MA”), and optional hops extract were added to the mixture. The contents were homogenized at 25° C. until homogeneous, and entrained air was removed by vacuum. […]
Each salt described in Table 3 was weighed with a Mettler Toledo XSE 205 DualRange balance (Mettler Toledo USA, Columbus, OH, USA) and quantitatively transferred to a 600-mL beaker. […]

In the case of C/C=C/C(=O)C1C(C)C=CCC1(C)C (stereo not shown) [delta-damascone], the “Effect on headspace levels of MeSH and DMDS” value is reported as “reduced the headspace levels of MeSH and DMDS substantially”.
